Laboratory results reported in patent publication US9060537B2, “Method for enhancing rebaudioside D solubility in water” (PEPSICO, INC., priority 2012, dated 2015).

Assays:
[1] = Modified Reb D solubility in water; type: physicochemical
[2] = co-crystallization of quercetin with caffeine, mass ratio 2:1; cited from earlier work
[3] = co-crystallization of quercetin with caffeine, mass ratio 2:1; cited from earlier work; remark: listed apart in the source

Row | Solubility (23° C.) (ppm) ([1]; in water, 23° C.) | solubility of the Reb D after spray drying the clear Reb D solution to a fine powder ([1]; spray dried without enhancer or stabilizer) | solubility in water ([1]; water at 23° C. / room temperature, untreated Reb D or powders as worded) | maximum solubility in heated water ([1]; water heated above 70° C., typically 80 to 100° C.) | Structure (SMILES) | solubility increase [2] | bioavailability increase [3]
1 | 350 ppm | 1500 ppm | 300 ppm | 2.5 wt % | C=C1C[C@@]23CC[C@H]4[C@@](C)(CCC[C@@]4(C)C(=O)O[C@@H]4O[C@H](CO)[C@@H](O)[C@H](O)[C@H]4O[C@@H]4O[C@H](CO)[C@@H](O)[C@H](O)[C@H]4O)[C@@H]2CC[C@]1(O[C@@H]1O[C@H](CO)[C@@H](O)[C@H](O[C@@H]2O[C@H](CO)[C@@H](O)[C@H](O)[C@H]2O)[C@H]1O[C@@H]1O[C@H](CO)[C@@H](O)[C@H](O)[C@H]1O)C3 [Control, Rebaudioside D] | – | –
2 | – | – | – | – | O=c1c(O)c(-c2ccc(O)c(O)c2)oc2cc(O)cc(O)c12 [quercetin] | 14 fold | 10 fold
